Measurements published in ChEMBL document CHEMBL1201862, “PubChem BioAssay data set” (2004).
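Assay format: 96-well plates, 48-hour exposure. GI50: concentration for 50% inhibition of growth.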 Calls of active or inactive are those of the source. No stated cut-off is given here; in the data, active = GI50 up to about 1.1 µM and inactive = higher.

How the values were obtained:
Experiment in all cases: NCI anticancer screen, dose series, 48 h
786-0 = tested on: 786-0
A498 = tested on: A498
A549 = tested on: A549
ACHN = tested on: ACHN
BT-549 = tested on: BT-549
CCRF-CEM = tested on: CCRF-CEM
COLO 205 = tested on: COLO 205
DLD-1 = tested on: DLD-1
DMS-114 = tested on: DMS-114
DMS-273 = tested on: DMS-273
DU-145 = tested on: DU-145
EKVX = tested on: EKVX
HCC 2998 = tested on: HCC 2998
HCT-116 = tested on: HCT-116
HCT-15 = tested on: HCT-15
HL-60 = tested on: HL-60
HOP-18 = tested on: HOP-18
HOP-62 = tested on: HOP-62
HOP-92 = tested on: HOP-92
HT-29 = tested on: HT-29
Hs-578T = tested on: Hs-578T
IGROV-1 = tested on: IGROV-1
K562 = tested on: K562
KM-20L2 = tested on: KM-20L2
KM12 = tested on: KM12
LOX IMVI = tested on: LOX IMVI
LXFL 529 = tested on: LXFL 529
M14 = tested on: M14
M19-MEL = tested on: M19-MEL
MCF7 = tested on: MCF7
MDA-MB-231 = tested on: MDA-MB-231
MDA-N = tested on: MDA-N
MOLT-4 = tested on: MOLT-4
Malme-3M = tested on: Malme-3M
NCI-H226 = tested on: NCI-H226
NCI-H23 = tested on: NCI-H23
NCI-H460 = tested on: NCI-H460
NCI-H522 = tested on: NCI-H522
OVCAR-3 = tested on: OVCAR-3
OVCAR-4 = tested on: OVCAR-4
OVCAR-5 = tested on: OVCAR-5
OVCAR-8 = tested on: OVCAR-8
PC-3 = tested on: PC-3
RPMI-8226 = tested on: RPMI-8226
RXF 393 = tested on: RXF 393
RXF 631 = tested on: RXF 631
SF-268 = tested on: SF-268
SF-295 = tested on: SF-295
SF-539 = tested on: SF-539
SK-MEL-28 = tested on: SK-MEL-28
SK-MEL-2 = tested on: SK-MEL-2
SK-MEL-5 = tested on: SK-MEL-5
SK-OV-3 = tested on: SK-OV-3
SN12C = tested on: SN12C
SNB-19 = tested on: SNB-19
SNB-75 = tested on: SNB-75
SNB-78 = tested on: SNB-78
SR = tested on: SR
SW-620 = tested on: SW-620
T47D = tested on: T47D
TK-10 = tested on: TK-10
U-251 = tested on: U-251
UACC-257 = tested on: UACC-257
UACC-62 = tested on: UACC-62
UO-31 = tested on: UO-31
XF498 = tested on: XF498

`ON(Cc1ccccc1)C(=S)c1ccccc1` was tested, and the GI50 (786-0) was 4.82 µM (inactive), the GI50 (A498) was 25.3 µM (inactive) and the GI50 (A549) was 4.35 µM (inactive). The GI50 (ACHN) was 4.21 µM (inactive), the GI50 (BT-549) was 39.2 µM (inactive) and the GI50 (CCRF-CEM) was 0.342 µM (active). For the same compound, the GI50 (COLO 205) was 1.45 µM (inactive), the GI50 (DLD-1) was 5.18 µM (inactive) and the GI50 (DMS-114) was 2.22 µM (inactive). The GI50 (DMS-273) was 2.62 µM (inactive), the GI50 (DU-145) was 7.38 µM (inactive) and the GI50 (EKVX) was 7.23 µM (inactive). For the same compound, the GI50 (HCC 2998) was 7.24 µM (inactive), the GI50 (HCT-116) was 3.4 µM (inactive) and the GI50 (HCT-15) was 2.6 µM. For the same compound, the GI50 (HL-60) was 0.927 µM (active), the GI50 (HOP-18) was 15.9 µM (inactive) and the GI50 (HOP-62) was 4.85 µM (inactive). The GI50 (HOP-92) was 50.7 µM (inactive), the GI50 (HT-29) was 2.88 µM (inactive) and the GI50 (Hs-578T) was > 100 µM (inactive). The GI50 (IGROV-1) was 5.86 µM (inactive), the GI50 (K562) was 3.27 µM (inactive) and the GI50 (KM-20L2) was 4.41 µM (inactive). The GI50 (KM12) was 4.76 µM (inactive), the GI50 (LOX IMVI) was 2.24 µM (inactive) and the GI50 (LXFL 529) was 1.66 µM (inactive). For the same compound, the GI50 (M14) was 5.21 µM (inactive), the GI50 (M19-MEL) was 6.58 µM (inactive) and the GI50 (MCF7) was 3.28 µM (inactive). The GI50 (MDA-MB-231) was 21.4 µM (inactive), the GI50 (MDA-N) was 6.81 µM (inactive) and the GI50 (MOLT-4) was 1.09 µM (active). For the same compound, the GI50 (Malme-3M) was 25.4 µM (inactive), the GI50 (NCI-H226) was 20.1 µM (inactive) and the GI50 (NCI-H23) was 3.62 µM (inactive). The GI50 (NCI-H460) was 1.93 µM (inactive), the GI50 (NCI-H522) was 0.482 µM (active) and the GI50 (OVCAR-3) was 2.72 µM (inactive). The GI50 (OVCAR-4) was 2.61 µM (inactive), the GI50 (OVCAR-5) was 17.9 µM (inactive) and the GI50 (OVCAR-8) was 3.46 µM (inactive). The GI50 (PC-3) was 3.03 µM (inactive), the GI50 (RPMI-8226) was 2.77 µM (inactive) and the GI50 (RXF 393) was 8.97 µM (inactive). The GI50 (RXF 631) was 5.38 µM (inactive), the GI50 (SF-268) was 3.32 µM (inactive) and the GI50 (SF-295) was 3.42 µM (inactive). The GI50 (SF-539) was 5.43 µM (inactive), the GI50 (SK-MEL-28) was 11.4 µM (inactive) and the GI50 (SK-MEL-2) was 2.62 µM (inactive). For the same compound, the GI50 (SK-MEL-5) was 4.47 µM (inactive), the GI50 (SK-OV-3) was 14.7 µM (inactive) and the GI50 (SN12C) was 8.41 µM (inactive). The GI50 (SNB-19) was 17.7 µM (inactive), the GI50 (SNB-75) was 19 µM (inactive) and the GI50 (SNB-78) was 31.8 µM (inactive). For the same compound, the GI50 (SR) was 0.481 µM (active), the GI50 (SW-620) was 4.23 µM (inactive) and the GI50 (T47D) was 5.9 µM (inactive). The GI50 (TK-10) was 21.8 µM (inactive), the GI50 (U-251) was 3.64 µM (inactive) and the GI50 (UACC-257) was 4.72 µM (inactive). For the same compound, the GI50 (UACC-62) was 2.43 µM (inactive), the GI50 (UO-31) was 4.03 µM (inactive) and the GI50 (XF498) was > 41.7 µM (inactive).
